# The source made the active and inactive calls. The calls are words filed in the database; no cut-off is given here.
# Key:
# [1] = tested on: HEp-2; test: Cytotoxicity against human Hep2 cells after 24 hrs by MTT assay; assay type: functional, cell-based; settings: HEp-2, 24 h
# [2] = tested on: Ehrlich; test: Cytotoxicity against mouse Ehrlich ascites carcinoma cells after 24 hrs by MTT assay; assay type: functional, cell-based
# [3] = tested on: Mus musculus; test: Effect on serum LDH activity in Swiss A mouse xenografted with mouse Ehrlich ascites carcinoma cells assessed as LDH unit at 1 mg/kg, ip administered five doses in alternate days measured after 16 days relative to control; assay type: functional; set-up: unit not given here; settings: route intraperitoneal
# [4] = tested on: A-375; test: Cytotoxicity against human A375 cells after 24 hrs by MTT assay; assay type: functional, cell-based; settings: A-375, 24 h
# [5] = tested on: Ehrlich; test: Antitumor activity against mouse Ehrlich ascites carcinoma cells xenografted in Swiss A mouse assessed as increase in survival time at 1 mg/kg, ip administered five doses in alternate days; assay type: functional; set-up: unit not given here; settings: route intraperitoneal
# [6] = tested on: PBMC; test: Cytotoxicity against human PBMC cells after 24 hrs by MTT assay; assay type: cell-based
# [7] = tested on: Ehrlich; test: Antitumor activity against mouse Ehrlich ascites carcinoma cells xenografted in Swiss A mouse assessed as increase in life span at 1 mg/kg, ip administered five doses in alternate days relative to control; assay type: functional; settings: route intraperitoneal
# [8] = tested on: Ehrlich; test: Induction of apoptosis in mouse Ehrlich ascites carcinoma cells assessed as intracellular ROS generation after 1 hr; assay type: functional, cell-based
# [9] = tested on: Mus musculus; test: Effect on alkaline phosphatase activity in Swiss A mouse xenografted with mouse Ehrlich ascites carcinoma cells assessed as umole of PNPP hydrolysed per minute per decilitre of serum at 1 mg/kg, ip administered five doses in alternate days measured after 16 days relative to control; assay type: functional; set-up: unit: umol/min/dL; settings: route intraperitoneal
# [10] = tested on: Ehrlich; test: Antitumor activity against mouse Ehrlich ascites carcinoma cells xenografted in Swiss A mouse assessed as inhibition of tumor growth at 1 mg/kg, ip administered five doses in alternate days measured after 16 days; assay type: functional; set-up: unit not given here; settings: route intraperitoneal
# [11] = tested on: HL-60; test: Cytotoxicity against human HL60 cells by MTT assay; assay type: functional, cell-based
# [12] = tested on: A-431; test: Cytotoxicity against human A431 cells by MTT assay; assay type: functional, cell-based
# [13] = tested on: K562; test: Cytotoxicity against human K562 cells by MTT assay; assay type: functional, cell-based
# [14] = Toxicity in single ip dosed Swiss A mouse; assay type: organism-based; settings: in vivo
# [15] = tested on: MCF7; test: Cytotoxicity against human MCF7 cells by MTT assay; assay type: functional, cell-based
# [16] = tested on: Ehrlich; test: Induction of apoptosis in mouse Ehrlich ascites carcinoma cells assessed as intracellular ROS generation at 0.4 uM after 1 hr by measuring increase in fluorescent intensity relative to control; assay type: functional
# [17] = tested on: Ehrlich; test: Induction of apoptosis in mouse Ehrlich ascites carcinoma cells assessed as intracellular ROS generation at 0.4 uM after 1 hr by measuring increase in fluorescent intensity relative to control in presence of N-acetyl L-cysteine; assay type: functional, cell-based
# [18] = tested on: PBMC; test: Selectivity ratio of IC50 for human A375 cells to IC50 for human PBMC cells
# [19] = tested on: Mus musculus; test: Toxicity in Swiss A mouse xenografted with mouse Ehrlich ascites carcinoma cells assessed as food and water intake at 1 mg/kg, ip administered five doses in alternate days measured after 16 days; assay type: organism-based; set-up: dose 1 mg/kg, route intraperitoneal; settings: in vivo, 384 h
# [20] = tested on: Ehrlich; test: Antitumor activity against mouse Ehrlich ascites carcinoma cells xenografted in Swiss A mouse assessed as restoration of lymphocyte infiltration and sinusoid dilation at 1 mg/kg, ip administered five doses in alternate days measured after 16 days by histopathological study relative to untreated control; assay type: functional, organism-based; set-up: dose 1 mg/kg
# [21] = tested on: PBMC; test: Selectivity ratio of IC50 for human Hep2 cells to IC50 for human PBMC cells
# [22] = tested on: PBMC; test: Selectivity ratio of IC50 for mouse Ehrlich ascites carcinoma to IC50 for human PBMC cells
SMILES,IC50 [1] [nM],IC50 [2] [nM],Activity [3],IC50 [4] [nM],Activity [5],IC50 [6] [nM],Activity [7] [%],Activity [8],Activity [9],Activity [10],IC50 [11] [nM],IC50 [12] [nM],IC50 [13] [nM],LD50 [14] [mg/kg],IC50 [15] [nM],also measured
COc1cc(C)cc2c1C(=O)C=C(c1c(C)cc3c(c1OC)C(=O)C(N)=CC3=O)C2=O,3510,350,34.7,3240,31.5,> 100000,72,Dose-dependent effect,4.4,3.4,,,,,,
COc1cc(C)cc2c1C(=O)C=C(c1c(C)cc3c(c1OC)C(=O)C(Nc1ccc(Cl)cc1)=CC3=O)C2=O,650,250,25.5,630,34.3,44900,69,Dose-dependent effect,6.4,2.7,,,,,,
Cc1cc(O)c2c(c1)C(=O)C(c1c(C)cc3c(c1O)C(=O)C=CC3=O)=CC2=O [DIOSPYRIN],,,16.3,,23.2,,36,,3.7,4.3,> 100000,65300,> 100000,25,74800,
COc1cc(C)cc2c1C(=O)C=C(c1c(C)cc3c(c1OC)C(=O)C(NCc1ccccc1)=CC3=O)C2=O,2610,1410,31.8,550,28.4,> 100000,47,Dose-dependent effect,3.1,3,,,,,,
CCOc1cc(C)cc2c1C(=O)C=C(c1c(C)cc3c(c1OCC)C(=O)C=CC3=O)C2=O,,,,,,,,,,,30100,15900,40200,,19000,
COc1cc(C)cc2c1C(=O)C=C(c1c(C)cc3c(c1OC)C(=O)C(Nc1ccc4ccccc4c1)=CC3=O)C2=O,2040,240,23.5,80,34,73800,67,Dose-dependent effect,5.4,2.9,,,,,,
COc1cc(C)cc2c1C(=O)C(N)=C(c1c(C)cc3c(c1OC)C(=O)C(N)=CC3=O)C2=O,2340,370,37.5,1930,30,40600,62,,4.9,3.9,,,,,,
COc1cc(C)cc2c1C(=O)C=C(c1c(C)cc3c(c1OC)C(=O)C=CC3=O)C2=O,,,25.5,,29.8,,57,,4.9,2.9,64100,28200,> 100000,45,46400,
CCOC(=O)CNC1=CC(=O)c2cc(C)c(C3=CC(=O)c4c(OC)cc(C)cc4C3=O)c(OC)c2C1=O,860,90,24.6,570,34.9,96200,81,Dose-dependent effect,5.9,2.3,,,,,,Activity [16]: 9; Activity [17]: inactive
COc1cc(C)cc2c1C(=O)C=C(c1c(C)cc3c(c1OC)C(=O)C(NC(C)=O)=CC3=O)C2=O,920,60,26.3,60,35.7,86500,93,,5.5,3.3,,,,> 60,,Selectivity ratio [18]: 100; Activity [16]: 9; Activity [19]: Non-toxic; Activity [20]: Active; Selectivity ratio [21]: 100; Selectivity ratio [22]: 100; Activity [17]: inactive

# — ChEMBL document CHEMBL1156718, “Synthesis of novel aminoquinonoid analogues of diospyrin and evaluation of their inhibitory activity against murine and human cancer cells” (Eur J Med Chem, 2008)
